Experiments:
[1] = target: T1, IDO1 (Homo sapiens (Human), UniProt P14902); experiment: IDO1 Enzyme Assay; format: biochemical; conditions: HIS-tagged recombinant IDO1, fluorescence readout
Protocol: (§1) Compounds to be tested were serially diluted in ten 3-fold steps in DMSO starting from 10 mM DMSO stocks. Compound dilutions or DMSO alone were then dispensed from the dilution plate into a Greiner black 384-well assay plate (catalog #781086) using an Echo 555 acoustic liquid handler (Labcyte).
HIS-tagged IDO1 protein was recombinantly expressed in Escherichia coli using ZYP5052 autoinduction media supplemented with 500 μM delta aminolevulinic acid for 48 h at 16° C. IDO1 protein was purified using Ni^2+-affinity resin and size exclusion chromatography. Purified protein was then diluted in assay buffer (50 mM Tris pH 7.0, 1% glycerol, 20 μM methylene blue, 0.05% Tween-20, 20 mM sodium ascorbate, 100 units/mL catalase to obtain a final IDO1 concentration of 40 nM. IDO1 solution […] or buffer alone ([…]) were dispensed to wells of the assay plate using a BioRAPTR liquid dispenser (Beckman Coulter). Assay plates containing compound and IDO1 enzyme were incubated at RT for 30 min. Afterwards, 10 μL of 400 μM tryptophan in assay buffer were added to each well of the assay plate using a BioRAPTR liquid dispenser. Plates were incubated at RT for 60 min and reactions were quenched by addition of 10 μL of 0.5 M methyl isonipecotate in dimethyl sulfoxide. Plates were sealed and incubated at 37° C. for 4 h or 50° C. for 2 h. The plates are allowed to cool and then centrifuged for 1 min at 1000×g. The resulting fluoresence was measured in an Envision plate reader (Perkin Elmer) with a 400/25 nm excitation filter and an 510/20 nm emission filter.
Potencies were calculated by linear least squares fit to the four parameter logistic IC50 equation.
Target sequence in this assay (P14902 whole entry, species assumed): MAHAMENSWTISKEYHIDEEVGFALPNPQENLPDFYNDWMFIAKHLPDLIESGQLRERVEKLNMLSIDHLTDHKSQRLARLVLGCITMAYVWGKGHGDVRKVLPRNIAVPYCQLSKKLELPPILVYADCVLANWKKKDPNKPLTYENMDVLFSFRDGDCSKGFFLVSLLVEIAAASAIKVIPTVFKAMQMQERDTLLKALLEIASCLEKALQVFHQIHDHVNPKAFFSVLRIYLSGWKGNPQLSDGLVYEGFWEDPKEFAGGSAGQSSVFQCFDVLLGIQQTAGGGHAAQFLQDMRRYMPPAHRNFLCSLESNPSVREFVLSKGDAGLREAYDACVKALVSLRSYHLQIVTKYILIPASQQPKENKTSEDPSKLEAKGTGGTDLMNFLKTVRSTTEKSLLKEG

[2] = target: T1, IDO1; experiment: IDO1 Cellular Assay in Hela Cells Stimulated with IFNγ; format: cell-based; conditions: about 48 hours, read-out: IDO1 HELA Cell Assay, IC50
Protocol: Hela cells were cultured in complete Hela culture medium (90% EMEM, 10% heat-inactivated fetal bovine serum) and expanded to about 1×10^9 cells. The cells were then collected and frozen down at 10×10^6 cells/vial in 1 mL frozen medium (90% complete Hela culture medium, 10% DMSO)
as §1, with “stocks in Echo low volume plate(s).” for “stocks.”, “plate(s)” for “plate”, “into” for “into a”, “#781086, 50 nL/well)” for “#781086)”, “550” for “555”
Target sequence in this assay (P14902 whole entry): as the sequence (P14902 whole entry, species assumed) above
Frozen Hela cells were thawed and transferred into Hela assay medium (99% complete Hela culture medium, 1% Pen/Strep) with 20 mL medium/vial of cells. The cells were spun down at 250 g in a table top centrifuge for 5 min and suspended in same volume of Hela assay medium. The cells were then counted and adjusted to a density of 2×10^5 cells/ml in Hela assay medium. Sterile L-tryptophan were added to the cells with final concentration of 300 uM L-tryptophan. A small aliquot (2 mL/plate) of Hela cells were set aside and were not treated with IFNγ, to serve as the Max-E control. The rest of Hela cells were added with sterile IFNγ (Cat #285-IF, R & D systems) with a final concentration of 100 ng/mL.
Hela cells with and without IFNγ were dispensed to the respective wells of 384-well assay plates containing the compounds. The plates were incubated for about 48 hours at a 37° C., 5% CO2 incubator. Afterwards, 12 μL of 0.5 M methyl isonipecotate in dimethyl sulfoxide were added into each well and the plates were sealed and incubated at 37° C. without CO2 overnight. The plates were centrifuged for 1 min at 200×g. The resulting fluorescence was measured in a Spectramax plate reader (Molecular Devices) with a 400 nm excitation filter and a 510 nm emission filter.
The fluorescence intensity of each well was corrected for the background observed in wells with non-IFNγ-treated cells and was expressed as a fraction of the intensity observed in wells of IFNγ-treated cells and DMSO only. Potencies were calculated by linear least squares fit to the four parameter logistic IC50 equation.

SMILES | IC50 [1] [nM] | IC50 [2] [nM]
N=S(=O)(CCO)CCNc1nonc1/C(=N/O)N[C@H]1Cc2ccc(F)cc21 (single isomer, unassigned) [Example 8] | 43.5 | 30.5
CS(=N)(=O)CCNC(=O)CNc1nonc1/C(=N/O)N[C@H]1Cc2ccc(F)cc21 (single isomer, unassigned) [Example 13] | 58.2 | 95.5
CS(=N)(=O)CCNC(=O)CNc1nonc1/C(=N/O)N[C@H]1Cc2ccc(F)cc21 (single isomer, unassigned) [Example 14] | 63.8 | 103
CS(=N)(=O)N1CCC(Nc2nonc2/C(=N/O)N[C@H]2Cc3ccc(F)cc32)CC1 (single isomer, unassigned) [Example 18] | 68.3 | 69.9
CS(=N)(=O)N1CCC(Nc2nonc2/C(=N/O)N[C@H]2Cc3ccc(F)cc32)CC1 (single isomer, unassigned) [Example 19] | 67.2 | 62.1
N=S1(=O)CCC1CNc1nonc1/C(=N/O)N[C@H]1Cc2ccc(F)cc21 (single isomer, unassigned) [Example 22] | 137 | 81.5
N=S1(=O)CCC1CNc1nonc1/C(=N/O)N[C@H]1Cc2ccc(F)cc21 (single isomer, unassigned) [Example 23] | 143 | 99.4
CS(=N)(=O)CCCNc1nonc1/C(=N/O)N[C@H]1Cc2ccc(F)cc21 (single isomer, unassigned) [Example 24] | 35.4 | 39.9
CS(=N)(=O)CCCNc1nonc1/C(=N/O)N[C@H]1Cc2ccc(F)cc21 (single isomer, unassigned) [Example 25] | 31.2 | 42.7
CS(=N)(=O)CC(O)CNc1nonc1/C(=N/O)N[C@H]1Cc2ccc(F)cc21 (single isomer, unassigned) [Example 26] | 53.7 | 99.9
CS(=N)(=O)CC(O)CNc1nonc1/C(=N/O)N[C@H]1Cc2ccc(F)cc21 (single isomer, unassigned) [Example 27] | 43.3 | 129
CS(=N)(=O)CC(O)CNc1nonc1/C(=N/O)N[C@H]1Cc2ccc(F)cc21 (single isomer, unassigned) [Example 28] | 60.7 | 110
CS(=N)(=O)CC(O)CNc1nonc1/C(=N/O)N[C@H]1Cc2ccc(F)cc21 (single isomer, unassigned) [Example 29] | 70.4 | 123
C[S@@](=N)(=O)CCCOc1nonc1/C(=N/O)NC1Cc2ccc(F)cc21 (single isomer, unassigned) [Example 30] | 231 | 384
C[S@@](=N)(=O)CCCOc1nonc1/C(=N/O)NC1Cc2ccc(F)cc21 (single isomer, unassigned) [Example 31] | 213 | 356
CS(=N)(=O)CCCCOc1nonc1/C(=N/O)N[C@H]1Cc2ccc(F)cc21 (single isomer, unassigned) [Example 32] | 178 | 241
CS(=N)(=O)CCCCOc1nonc1/C(=N/O)N[C@H]1Cc2ccc(F)cc21 (single isomer, unassigned) [Example 33] | 184 | 288
CN=S(C)(=O)CCNc1nonc1/C(=N/O)N[C@H]1Cc2ccc(F)cc21 (single isomer, unassigned) [Example 34] | 59.8 | 77
CN=S(C)(=O)CCNc1nonc1/C(=N/O)N[C@H]1Cc2ccc(F)cc21 (single isomer, unassigned) [Example 35] | 81.6 | 43.2
CS(=N)(=O)N1CC(O)(CNc2nonc2/C(=N/O)N[C@H]2Cc3ccc(F)cc32)C1 (single isomer, unassigned) [Example 37] | 108 | 312

SMILES | IC50 [1] [nM] | IC50 [2] [nM]
CS(=N)(=O)CCCCNc1nonc1/C(=N/O)N[C@H]1Cc2ccc(F)cc21 (single isomer, unassigned) [Example 38] | 47.2 | 26.7
CS(=N)(=O)CCCCNc1nonc1/C(=N/O)N[C@H]1Cc2ccc(F)cc21 (single isomer, unassigned) [Example 39] | 50.8 | 35.7
CS(=N)(=O)N1CC(Oc2nonc2/C(=N/O)N[C@H]2Cc3ccc(F)cc32)C1 (single isomer, unassigned) [Example 42] | 56.8 | 43.6
CS(=N)(=O)N1CCC(Nc2nonc2/C(=N/O)N[C@H]2Cc3ccc(F)cc32)C1 (single isomer, unassigned) [Example 43] | 169 | 157
CS(=N)(=O)N1CCC(Nc2nonc2/C(=N/O)N[C@H]2Cc3ccc(F)cc32)C1 (single isomer, unassigned) [Example 44] | 220 | 219
CS(=N)(=O)N1CCC(Nc2nonc2/C(=N/O)N[C@H]2Cc3ccc(F)cc32)C1 (single isomer, unassigned) [Example 45] | 107 | 85
CS(=N)(=O)N1CCC(Nc2nonc2/C(=N/O)N[C@H]2Cc3ccc(F)cc32)C1 (single isomer, unassigned) [Example 46] | 175 | 153
CS(=N)(=O)CCOCCNc1nonc1/C(=N/O)N[C@H]1Cc2ccc(F)cc21 (single isomer, unassigned) [Example 47] | 154 | 196
CS(=N)(=O)CCOCCNc1nonc1/C(=N/O)N[C@H]1Cc2ccc(F)cc21 (single isomer, unassigned) [Example 48] | 119 | 144
CS(=N)(=O)CC(=O)N1CC(Oc2nonc2/C(=N/O)N[C@H]2Cc3ccc(F)cc32)C1 (single isomer, unassigned) [Example 49] | 112 | 99.5
CS(=N)(=O)CC(=O)N1CC(Oc2nonc2/C(=N/O)N[C@H]2Cc3ccc(F)cc32)C1 (single isomer, unassigned) [Example 50] | 111 | 153
CS(=N)(=O)NCCOc1nonc1/C(=N/O)N[C@H]1Cc2ccc(F)cc21 (single isomer, unassigned) [Example 51] | 262 | 317
CS(=N)(=O)NCCOc1nonc1/C(=N/O)N[C@H]1Cc2ccc(F)cc21 (single isomer, unassigned) [Example 52] | 175 | 148
CS(=N)(=O)NCC(O)CNc1nonc1/C(=N\O)N[C@H]1Cc2ccc(F)cc21 (single isomer, unassigned) [Example 55] | 92.9 | 117
CS(=N)(=O)NCC(O)CNc1nonc1/C(=N\O)N[C@H]1Cc2ccc(F)cc21 (single isomer, unassigned) [Example 56] | 107 | 162
CS(=O)(CCNc1nonc1/C(=N\O)N[C@H]1Cc2ccc(F)cc21)=NCCO (single isomer, unassigned) [Example 57] | 70.6 | 109
CS(=O)(CCNc1nonc1/C(=N\O)N[C@H]1Cc2ccc(F)cc21)=NCCO (single isomer, unassigned) [Example 58] | 125 | 123
CS(=N)(=O)N1CCO[C@@H](CNc2nonc2/C(=N\O)N[C@H]2Cc3ccc(F)cc32)C1 (single isomer, unassigned) [Example 59] | 120 | 129
CS(=N)(=O)N1CCO[C@@H](CNc2nonc2/C(=N\O)N[C@H]2Cc3ccc(F)cc32)C1 (single isomer, unassigned) [Example 60] | 234 | 329

Reference: patent US10927086B2, “Substituted sulfoximine compounds as indoleamine 2,3-dioxygenase (IDO) inhibitors” (Merck Sharp & Dohme Corp., priority 2017, dated 2021)
